Measurements from article PMC7256108 (Cellular and Molecular Life Sciences: CMLS, 2019).
“And” between values parts separate entries of the source, which are not always exact repeats. Equal values may be shown once. Read-outs that look alike come from different tables or passages of the source.

Columns and labels:
Assay type in all cases: cell-based
OR2M3 C203A = target: T1, OR2M3 C203A (Homo sapiens, UniProt Q8NG83, C203A); test: GloSensor assay, OR2M3 C203A; details: even in the presence of Cu^2+, agonist 20 µmol/L
T1 construct: 39aa rho-tag; expressed in transfected cells; host or cells: NxG 108CC15 or HEK-293 cells
T1 sequence (Q8NG83 whole entry C203A): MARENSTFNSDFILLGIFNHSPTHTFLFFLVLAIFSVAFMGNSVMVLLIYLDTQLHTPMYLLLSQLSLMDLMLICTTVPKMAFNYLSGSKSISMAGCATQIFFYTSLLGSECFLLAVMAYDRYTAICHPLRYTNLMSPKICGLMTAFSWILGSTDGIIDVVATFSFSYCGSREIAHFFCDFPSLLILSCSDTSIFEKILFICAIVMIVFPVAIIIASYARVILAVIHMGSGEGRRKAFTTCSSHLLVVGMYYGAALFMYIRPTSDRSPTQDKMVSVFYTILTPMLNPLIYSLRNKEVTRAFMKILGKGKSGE
Description: (§1) All receptor variants used were generated by PCR-based site-directed mutagenesis in two steps. Gene-specific primers (mutation primers) were used according to Table S2 and Table S3. The mutation primers, which carried the changed nucleotides, were designed overlapping.
(§2) The assay was performed as reported above.
(§3) All data are presented as mean ± SD.

OR2M3 C202S = target: T2, OR2M3 C202S (Homo sapiens, UniProt Q8NG83, C202S); test: GloSensor assay, OR2M3 C202S; details: even in the presence of Cu^2+, agonist 20 µmol/L
T2 construct: full-length gene-specific forward and reverse primers were added; 39aa rho-tag; expressed in transfected cells; host or cells: NxG 108CC15 or HEK-293 cells
T2 sequence (Q8NG83 whole entry C202S): as the sequence (Q8NG83 whole entry C203A) above, with C202S, A203C counted along it
Description: as §1, §2, §3

OR2M3 wt = target: T3, OR2M3 wt (Homo sapiens, UniProt Q8NG83); test: cAMP-luminescence GloSensor assay, recombinant OR2M3 wt; details: OR2M3 wt
T3 construct: full-length gene-specific forward and reverse primers were added; 39aa rho-tag; expressed in transfected cells; host or cells: NxG 108CC15 or HEK-293 cells
T3 sequence (Q8NG83 1-312): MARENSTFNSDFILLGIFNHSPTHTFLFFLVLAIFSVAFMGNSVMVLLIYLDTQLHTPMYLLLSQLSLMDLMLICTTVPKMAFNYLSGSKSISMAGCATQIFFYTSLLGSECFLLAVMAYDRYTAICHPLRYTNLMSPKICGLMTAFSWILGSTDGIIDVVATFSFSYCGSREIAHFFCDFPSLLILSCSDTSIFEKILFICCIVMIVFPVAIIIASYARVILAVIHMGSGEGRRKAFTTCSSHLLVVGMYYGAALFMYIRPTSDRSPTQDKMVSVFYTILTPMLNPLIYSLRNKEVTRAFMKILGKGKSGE
Description: as §2, §3

OR2M3 T105A = target: T4, OR2M3 T105A (Homo sapiens, UniProt Q8NG83, T105A); test: GloSensor assay, OR2M3 T105A
T4 construct: 39aa rho-tag; expressed in transfected cells; host or cells: NxG 108CC15 or HEK-293 cells
T4 sequence (Q8NG83 whole entry T105A): as the sequence (Q8NG83 whole entry C203A) above, with T105A, A203C counted along it
Description: as §1, §2, §3

OR2M3 M206I = target: T5, OR2M3 M206I (Homo sapiens, UniProt Q8NG83, M206I); test: GloSensor assay, OR2M3 M206I; details: OR2M3 M206I (SNP haplotype)
T5 construct: 39aa rho-tag; expressed in transfected cells; host or cells: NxG 108CC15 or HEK-293 cells
T5 sequence (Q8NG83 whole entry M206I): as the sequence (Q8NG83 whole entry C203A) above, with A203C, M206I counted along it
Source text: as §1, §3
(§4) (a) Schematic snake diagram with localization of mutated amino acid positions within OR2M3, which have been chosen because of their close vicinity to putative interaction sites with odorants as proposed by Man et al. (red circles). Effects of 3-mercapto-2-methylpentan-1-ol on OR2M3 variants (black curves) with SNP-defined single amino acid changes at positions 104^3.32 (b), 206^5.45 (c), and 207^5.46 (d). Note that the same data set for 3-mercapto-2-methylpentan-1-ol on OR2M3 wt (grey, see also Fig. 1b, d) is given in panels (b)-(d) for didactic reasons. […] RLU = relative luminescence unit. 3MMP = 3-mercapto-2-methylpentan-1-ol.

OR2M3 I207L = target: T6, OR2M3 I207L (Homo sapiens, UniProt Q8NG83, I207L); test: GloSensor assay, OR2M3 I207L; details: OR2M3 I207L (SNP haplotype)
T6 construct: full-length gene-specific forward and reverse primers were added; 39aa rho-tag; expressed in transfected cells; host or cells: NxG 108CC15 or HEK-293 cells
T6 sequence (Q8NG83 whole entry I207L): as the sequence (Q8NG83 whole entry C203A) above, with A203C, I207L counted along it
Source text: as §1, §3, §4

OR2M3 C112S = target: T7, OR2M3 C112S (Homo sapiens, UniProt Q8NG83, C112S); test: GloSensor assay, OR2M3 C112S; details: presence of copper 10 µmol/L, agonist 20 µmol/L
T7 construct: 39aa rho-tag; expressed in transfected cells; host or cells: NxG 108CC15 or HEK-293 cells
T7 sequence (Q8NG83 whole entry C112S): as the sequence (Q8NG83 whole entry C203A) above, with C112S, A203C counted along it
Description: as §1, §2, §3

OR2M3 C203S = target: T8, OR2M3 C203S (Homo sapiens, UniProt Q8NG83, C203S); test: GloSensor assay, OR2M3 C203S; details: 10 µmol/L Cu^2+, read-out: EC50 in the presence of Cu^2+
T8 construct: 39aa rho-tag; expressed in transfected cells; host or cells: NxG 108CC15 or HEK-293 cells
T8 sequence (Q8NG83 whole entry C203S): as the sequence (Q8NG83 whole entry C203A) above, with A203S counted along it
Description: as §1, §2, §3

OR2M3 C203Y = target: T9, OR2M3 C203Y (Homo sapiens, UniProt Q8NG83, C203Y); test: GloSensor assay, OR2M3 C203Y; details: in the absence or presence of Cu^2+
T9 construct: full-length gene-specific forward and reverse primers were added; 39aa rho-tag; expressed in transfected cells; host or cells: NxG 108CC15 or HEK-293 cells
T9 sequence (Q8NG83 whole entry C203Y): as the sequence (Q8NG83 whole entry C203A) above, with A203Y counted along it
Description: as §1, §2, §3

OR2M3 Y104C = target: T10, OR2M3 Y104C (Homo sapiens, UniProt Q8NG83, Y104C); test: GloSensor assay, OR2M3 Y104C; details: OR2M3 Y104C (SNP haplotype)
T10 construct: full-length gene-specific forward and reverse primers were added; 39aa rho-tag; expressed in transfected cells; host or cells: NxG 108CC15 or HEK-293 cells
T10 sequence (Q8NG83 whole entry Y104C): as the sequence (Q8NG83 whole entry C203A) above, with Y104C, A203C counted along it
Source text: as §1, §3, §4

OR2M3 C112A = target: T11, OR2M3 C112A (Homo sapiens, UniProt Q8NG83, C112A); test: GloSensor assay, OR2M3 C112A
T11 construct: 39aa rho-tag; expressed in transfected cells; host or cells: NxG 108CC15 or HEK-293 cells
T11 sequence (Q8NG83 whole entry C112A): as the sequence (Q8NG83 whole entry C203A) above, with C112A, A203C counted along it
Description: as §1, §2, §3

OR2M3 C241A = target: T12, OR2M3 C241A (Homo sapiens, UniProt Q8NG83, C241A); test: GloSensor assay, OR2M3 C241A; details: OR2M3 Cys241 to alanine; in the absence or presence of Cu^2+
T12 construct: 39aa rho-tag; expressed in transfected cells; host or cells: NxG 108CC15 or HEK-293 cells
T12 sequence (Q8NG83 whole entry C241A): as the sequence (Q8NG83 whole entry C203A) above, with A203C, C241A counted along it
Description: as §1, §2, §3

OR2M3 H244A = target: T13, OR2M3 H244A (Homo sapiens, UniProt Q8NG83, H244A); test: GloSensor assay, OR2M3 H244A; details: OR2M3 His244 to alanine; in the absence or presence of Cu^2+
T13 construct: 39aa rho-tag; expressed in transfected cells; host or cells: NxG 108CC15 or HEK-293 cells
T13 sequence (Q8NG83 whole entry H244A): as the sequence (Q8NG83 whole entry C203A) above, with A203C, H244A counted along it
Description: as §1, §2, §3

OR2M3 C202A = target: T14, OR2M3 C202A (Homo sapiens, UniProt Q8NG83, C202A); test: GloSensor assay, OR2M3 C202A; details: even in the presence of Cu^2+, agonist 20 µmol/L
T14 construct: 39aa rho-tag; expressed in transfected cells; host or cells: NxG 108CC15 or HEK-293 cells
T14 sequence (Q8NG83 whole entry C202A): as the sequence (Q8NG83 whole entry C203A) above, with C202A, A203C counted along it
Description: as §1, §2, §3

[1] = 10 µmol/L Cu^2+, read-out: EC50 in the presence of Cu^2+
[2] = presence of copper 10 µmol/L, agonist 20 µmol/L

CCC(S)C(C)CO (stereo not shown) [3-Mercapto-2-methylpentan-1-ol, 3-mercapto-2-methylpentan-1-ol]
agonist function in mutant receptor (OR2M3 C203A): complete loss-of-function | agonist function in mutant receptor (OR2M3 C202S): complete loss-of-function | EC50 (OR2M3 wt; 10 µmol/L Cu^2+, mean ± SD (n = 3–5), read-out: EC50 in the presence of Cu^2+): 290 ± 100 nM | Relative amplitude (OR2M3 wt; 30 µmol/L AgAc, normalized to wt signal without Cu^2+): 5.72 ± 0.42 | EC50 (OR2M3 wt; 30 µmol/L AgAc, read-out: EC50): 870 ± 500 nM | Relative amplitude (OR2M3 wt; 30 µmol/L AgNO3, normalized to wt signal without Cu^2+): 6.41 ± 1.17 | EC50 (OR2M3 wt; 30 µmol/L AgNO3, read-out: EC50): 1490 ± 360 nM | EC50 (OR2M3 wt; 30 µmol/L CoCl2, read-out: EC50): 730 ± 260 nM | EC50 (OR2M3 wt; 30 µmol/L CuCl2 + copper chelator TEPA, read-out: EC50): 1130 ± 360 nM | EC50 (OR2M3 wt; 30 µmol/L FeCl3, read-out: EC50): 1670 ± 340 nM | EC50 (OR2M3 wt; 30 µmol/L NiCl2, read-out: EC50): 1090 ± 630 nM | Relative amplitude (OR2M3 wt; 30 µmol/L ZnSO4, n.d. = no detectable response up to 60 µmol/L): complete loss-of-function | Relative amplitude (OR2M3 wt; 30 µmol/L colloidal Ag, normalized to wt signal without Cu^2+): 3.52 ± 0.69 | EC50 (OR2M3 wt; 30 µmol/L colloidal Ag, read-out: EC50): 760 ± 350 nM | Hill coefficient (OR2M3 wt; absence of copper (n = 4)): 0.89 ± 0.41 | Relative amplitude (OR2M3 wt; copper concentration 60 µmol, normalized to wt signal without Cu^2+): 1.42 ± 0.64 | EC50 (OR2M3 wt; copper concentration 60 µmol, read-out: EC50): 1470 ± 120 nM | Relative amplitude (OR2M3 wt; copper concentration 100 µmol, normalized to wt signal without Cu^2+): 0.73 ± 0.48 | EC50 (OR2M3 wt; copper concentration 100 µmol, read-out: EC50): 1950 ± 300 nM | EC50 (OR2M3 wt; no metal supplementation (w/o), mean ± SD (n = 3–5), read-out: EC50 in the absence of Cu^2+): 450 ± 190 nM | EC50 (OR2M3 wt; presence of 30 µmol/L CuCl2, read-out: EC50): 550 ± 10 nM | Hill coefficient (OR2M3 wt; presence of copper (10 µmol/L) (n = 4)): 1.9 and 1.93 ± 0.71 and ~2 | increase in amplitude (OR2M3 wt; supplementation with ionic or colloidal silver, 30 µmol/L): three-to-sixfold increase in amplitude | Relative amplitude (OR2M3 wt; w/o metal, normalized to OR2M3 wt signal with 3-mercapto-2-methylpentan-1-ol (20 µmol/L) in the absence of Cu^2+ (reference)): 1 | EC50 (OR2M3 T105A; [1]): 750 ± 270 nM | agonist function in mutant receptor (OR2M3 T105A; [2]): rescued | receptor function (response to agonist) (OR2M3 M206I): complete loss-of-function | EC50 (OR2M3 I207L): 1410 ± 40 nM | agonist function in mutant receptor (OR2M3 C112S): rescued | EC50 (OR2M3 C203S): 3160 ± 10 nM | agonist function in mutant receptor (OR2M3 C203Y): complete loss-of-function | EC50 (OR2M3 Y104C): 1020 ± 180 nM | EC50 (OR2M3 C112A; [1]): 860 ± 4 nM | agonist function in mutant receptor (OR2M3 C112A; [2]): rescued | agonist function in mutant receptor (OR2M3 C241A): not functional anymore | agonist function in mutant receptor (OR2M3 H244A): not functional anymore | agonist function in mutant receptor (OR2M3 C202A): complete loss-of-function
